Experimental data from ChEMBL document CHEMBL5104164, “Design, synthesis, and biological evaluation of pyrrolopyrimidine derivatives as novel Bruton's tyrosine kinase (BTK) inhibitors” (Eur J Med Chem, 2022).

Assays:
[1] = target: Tyrosine-protein kinase BTK (Homo sapiens, UniProt Q06187); assay: Inhibition of BTK (unknown origin) measured by ADP-Glo assay
TMD8 = assay: Antiproliferative activity against human TMD8 cells incubated for 72 hrs by CellTiter-Glo assay; settings: TMD8, 72 h
Homo sapiens = species on record: Homo sapiens; assay: Selectivity ratio for inhibition of BTK (unknown origin) over EGFR (unknown origin)
[2] = AUC (0 to t) in male BALB/c mouse at 10 mg/kg, po; format: ADME, organism-based; design: dose 10 mg/kg, route po; settings: in vivo
[3] = Tmax in male BALB/c mouse at 10 mg/kg, po; format: ADME, organism-based; settings: in vivo
[4] = Apparent volume of distribution in male BALB/c mouse at 2 mg/kg, iv; format: ADME, organism-based; settings: in vivo, read-out: Vz
[5] = Cmax in male BALB/c mouse at 2 mg/kg, iv; format: ADME, organism-based; design: dose 2 mg/kg, route iv; settings: in vivo
[6] = Tmax in male BALB/c mouse at 2 mg/kg, iv; format: ADME, organism-based; settings: in vivo
[7] = AUC (0 to infinity) in male BALB/c mouse at 2 mg/kg, iv; format: ADME, organism-based; design: time infinity, dose 2 mg/kg, route iv; settings: in vivo
[8] = Cmax in male BALB/c mouse at 10 mg/kg, po; format: ADME, organism-based; design: dose 10 mg/kg, route po; settings: in vivo
[9] = AUC (0 to infinity) in male BALB/c mouse at 10 mg/kg, po; format: ADME, organism-based; design: time infinity, dose 10 mg/kg, route po; settings: in vivo
[10] = Half-life in male BALB/c mouse at 2 mg/kg, iv; format: ADME, organism-based; settings: in vivo
[11] = Clearance in male BALB/c mouse at 2 mg/kg, iv; format: ADME, organism-based; settings: in vivo
[12] = Half-life in male BALB/c mouse at 10 mg/kg, po; format: ADME, organism-based; settings: in vivo
[13] = Oral bioavailability in male BALB/c mouse; format: ADME, organism-based; settings: in vivo
[14] = AUC (0 to t) in male BALB/c mouse at 2 mg/kg, iv; format: ADME, organism-based; design: dose 2 mg/kg, route iv; settings: in vivo

Sequence of Tyrosine-protein kinase BTK (Q06187 whole entry): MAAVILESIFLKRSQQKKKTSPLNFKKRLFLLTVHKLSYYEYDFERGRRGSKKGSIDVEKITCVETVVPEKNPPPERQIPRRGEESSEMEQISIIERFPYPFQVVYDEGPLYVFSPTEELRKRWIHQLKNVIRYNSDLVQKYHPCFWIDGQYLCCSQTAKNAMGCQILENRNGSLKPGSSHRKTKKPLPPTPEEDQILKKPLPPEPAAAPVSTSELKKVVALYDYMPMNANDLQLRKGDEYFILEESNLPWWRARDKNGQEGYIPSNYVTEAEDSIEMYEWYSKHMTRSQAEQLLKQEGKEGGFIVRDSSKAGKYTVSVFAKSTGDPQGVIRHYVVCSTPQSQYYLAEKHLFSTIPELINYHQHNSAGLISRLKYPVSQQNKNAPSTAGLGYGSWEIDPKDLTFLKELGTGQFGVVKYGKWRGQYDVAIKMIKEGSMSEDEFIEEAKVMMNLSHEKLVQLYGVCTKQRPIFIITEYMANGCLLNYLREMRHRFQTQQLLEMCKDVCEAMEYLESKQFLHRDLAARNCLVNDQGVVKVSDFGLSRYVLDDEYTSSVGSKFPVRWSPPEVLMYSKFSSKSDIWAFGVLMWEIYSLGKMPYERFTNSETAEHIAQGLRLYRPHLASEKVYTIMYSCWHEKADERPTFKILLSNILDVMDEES

Compound	IC50 [1]	IC50 (TMD8)	also measured
C=CC(=O)N1CCC(CNc2ncnc3[nH]cc(C(=O)N4CC(OCc5ccccc5)C4)c23)CC1	2 nM	30.7 nM	
C=CC(=O)N1CCC(CNc2ncnc3[nH]cc(C(=O)NCCc4ccccc4)c23)CC1	17.3 nM		
C=CC(=O)N1CCC(CNc2ncnc3[nH]cc(C(=O)N4CC(Oc5ccccc5)C4)c23)CC1	0.6 nM	24.4 nM	
C=CC(=O)N1CC[C@H](n2nc(C#Cc3cc(OC)cc(OC)c3)c3c(N)ncnc32)C1 [FUTIBATINIB]	94.9 nM		
C=CC(=O)N1CCC([C@@H]2CCNc3c(C(N)=O)c(-c4ccc(Oc5ccccc5)cc4)nn32)CC1			Selectivity ratio (Homo sapiens): 8.7
C=CC(=O)N1CCC(CNc2ncnc(N)c2-c2ccc(Oc3ccccc3)cc2)CC1 [EVOBRUTINIB]		56.2 nM	
CC#CC(=O)N1CCC(c2c[nH]c3ncnc(-c4ccc(CNC(=O)c5ccc(C(C)(C)C)cc5)c(F)c4)c23)CC1	1.2 nM	1.8 nM	AUC(0-t) [2]: 8.94 ng·h/mL; Tmax [3]: 4.8 min; Vd [4]: 34.8 L/kg; Cmax [5]: 2160 ng/mL; Tmax [6]: 1.8 min; AUC(0-inf) [7]: 231 ng·h/mL; Cmax [8]: 49.9 ng/mL; AUC(0-inf) [9]: 9.57 ng·h/mL; half-life [10]: 167 min; clearance [11]: 144 mL/min/kg; half-life [12]: 83.4 min; bioavailability [13]: 0.78%; AUC(0-t) [14]: 229 ng·h/mL
CC#CC(=O)N1CCC(c2c[nH]c3ncnc(-c4ccc(CNC(=O)c5ccc(C(C)(C)C)cc5)cc4)c23)CC1	2.2 nM		
C=CC(=O)N1CCC(CNc2ncnc3[nH]cc(C(=O)NCc4ccccc4)c23)CC1	52.3 nM		
C=CC(=O)N1CC=C(c2c[nH]c3ncnc(-c4ccc(CNC(=O)c5ccc(C(C)(C)C)cc5)c(C)c4)c23)CC1	1.34 nM		
CC#CC(=O)N1CCCC(Nc2ncnc3[nH]cc(C(=O)N4CC(Oc5ccccc5)C4)c23)C1 (configuration not stated)	153 nM		
C=CC(=O)N1CCC(CNc2ncnc3[nH]cc(C(=O)NCCOc4ccccc4)c23)CC1	8.4 nM		
C=CC(=O)N1CCC(CNc2ncnc3[nH]cc(C(=O)N4CC(Oc5ccc(F)cc5)C4)c23)CC1	0.7 nM	84.1 nM	
C=CC(=O)N1CC=C(c2c[nH]c3ncnc(-c4ccc(CNC(=O)Nc5ccccc5)c(F)c4)c23)CC1	0.8 nM	12.1 nM	
C=CC(=O)N1CCC(CNc2ncnc3[nH]cc(C(=O)N4CC(Oc5cccc(C)c5)C4)c23)CC1	0.5 nM	15.6 nM	
CC#CC(=O)N1CC=C(c2c[nH]c3ncnc(-c4ccc(CNC(=O)c5ccc(C(C)(C)C)cc5)cc4)c23)CC1	11.1 nM		
C=CC(=O)N1CCC(c2c[nH]c3ncnc(-c4ccc(CNC(=O)c5ccc(C(C)(C)C)cc5)cc4)c23)CC1	2.1 nM		
CC#CC(=O)N1CCC(c2c[nH]c3ncnc(-c4ccc(CNC(=O)c5ccc(C(C)(C)C)cc5)c(C)c4)c23)CC1	1.4 nM		
C=CC(=O)N1CCC(CNc2ncnc3[nH]cc(C(=O)N4CC(Oc5cccc(C(F)(F)F)c5)C4)c23)CC1	1.6 nM	22.4 nM	
C=CC(=O)N1CCCC(Nc2ncnc3[nH]cc(C(=O)N4CC(Oc5ccccc5)C4)c23)C1 (configuration not stated)	1.9 nM	454 nM	
CC#CC(=O)N1CCC(Nc2ncnc3[nH]cc(C(=O)N4CC(Oc5ccccc5)C4)c23)CC1	974 nM		
C=CC(=O)N1CC=C(c2c[nH]c3ncnc(-c4ccc(CNC(=O)c5ccc(C(C)(C)C)cc5)cc4)c23)CC1	2.5 nM		
C=CC(=O)NC1CCCN(c2ncnc3[nH]cc(C(=O)N4CC(Oc5ccccc5)C4)c23)C1 (configuration not stated)	5410 nM		
CC#CC(=O)N1CC=C(c2c[nH]c3ncnc(-c4ccc(CNC(=O)c5ccccc5)c(F)c4)c23)CC1	1 nM	5.4 nM	
C=CC(=O)N1CCC(Nc2ncnc3[nH]cc(C(=O)N4CC(Oc5ccccc5)C4)c23)CC1	593 nM		
